Reference: PMC11767451, “Novel Approaches to Monitor Pharmacokinetics and Metabolism of Gemcitabine-Ibandronate Conjugate in Mice and Dogs” (Molecules, 2025)

Tests used:
[1] = Autosampler stability of extracted dog plasma samples at 4 °C; format: physicochemical
Method: (§1) The stability of extracted dog and mouse plasma samples in the autosampler at 4 °C was established for 24 and 48 h. Except for GEM-IB, in mouse and dog plasma extracts, all analytes were within ±20% of the nominal enriched concentration for up to 48 h in the autosampler. GEM-IB was stable for up to 24 h under these conditions.
(§2) Method development and validation was conducted following applicable FDA guidelines for bioanalytical assays, as considered fit for purpose. Specificity. Endogenous interferences were excluded by analysis of blank plasma from 6 different individual lots of plasma. The lower limit of quantification (LLOQ) was determined as the lowest concentration consistently achieving an accuracy better than ±20% of the nominal concentration, with imprecision ≤20%. Predefined acceptance criteria. The performance of the assay was considered acceptable if intra- and inter-day imprecision (coefficient of variance, %CV) at each concentration was ≤15%, except at the LLOQ (≤20%). Intra- and inter-day accuracy had to be ±15% of the nominal value, except at the LLOQ (±20%). Calibration curves had to have a correlation coefficient (r) of 0.99 or better. Analytical recovery and imprecision. Intra- and inter-day analytical accuracy and imprecision were tested at least at four concentration levels depending on the LLOQ for each compound. Intra-day imprecision and accuracy were determined with n = 6 per QC level. Inter-day imprecision and accuracy were measured over 3 days, with six replicates for each QC concentration (n = 18). Extraction efficiency and matrix effect. Extraction efficiency for GEM-IB and metabolites was established by comparing the signals of the analytes after the extraction of QCs (n = 6/concentrations), with the signals of the extracted blank matrix spiked with the respective concentrations of analytes after the extraction procedure. The matrix effect was determined by comparing the analyte LC-MS/MS signal after spiking of the analyte into the extracted blank matrix (matrix from 6 different individual lots, analyte concentrations as for the QC samples) with the HPLC-MS/MS signal of the same amount of analyte in neat solution [25]. Carry-over. Carry-over was assessed by injecting blank buffer samples after analysis of the highest calibrators. Carry-over was considered insignificant if there was no signal at the relevant retention times exceeding 20% of the analyte signals at the LLOQ. Stability. QC samples were freshly prepared. One set was extracted and was analyzed immediately to determine baseline signals. Analyte stability in plasma was evaluated at two QC concentration levels (n = 3/concentration level) under different conditions: 1, 2, and 24 h at room temperature and at 4 °C. In addition, stability after extraction was determined after 24 h and 48 h at 4 °C in the autosampler and for up to 3 freeze (−70 °C)–thaw (ambient) cycles. Stability was assessed by comparing analyte concentrations with baseline (t0) concentrations. Stability was assumed when the results were within ±20% of the baseline concentrations. Long-term stability estimates were performed by re-extraction of samples used during the PK study (n = 6). Samples were initially analyzed for the PK assessment and were stored for 1.5 years (GEM-IB and IB) and 2.5 years (GEM, GEMMP, dFdU, and dFdU-MP) at <−70 °C prior to reanalysis. Stability was assessed by comparing analyte concentrations with the initial assessments. Stability was acceptable when the results were within ±20% of the baseline concentrations and the percent standard deviation (%-SD) was below 25%.

[2] = Autosampler stability of extracted mouse plasma samples at 4 °C; format: physicochemical
Method: as §1, §2

SMILES	%-ACC (% accuracy vs nominal) ([1]; 24 hours autosampler 4 °C)	%-ACC (% accuracy vs nominal) ([1]; 48 hours autosampler 4 °C)	%-ACC (% accuracy vs nominal) ([2]; 24 hours autosampler 4 °C)	%-ACC (% accuracy vs nominal) ([2]; 48 hours autosampler 4 °C)
Nc1ccn([C@@H]2O[C@H](CO)[C@@H](O)C2(F)F)c(=O)n1 [GEM, gemcitabine]	100.7%	106.8%	102.0%	107.0%
CCCCCN(C)CCC(O)(P(=O)(O)O)P(=O)(O)OP(=O)(O)OC[C@H]1O[C@@H](n2ccc(N)nc2=O)C(F)(F)[C@@H]1O (stereo partly drawn) [GEM-IB]	86.2%	63.4%	96.8%	59.7%
Nc1ccn([C@@H]2O[C@H](COP(=O)(O)O)[C@@H](O)C2(F)F)c(=O)n1 [GEMMP, gemcitabine-5′-phosphate]	92.4%	90.0%	96.9%	100.4%
CCCCCN(C)CCC(O)(P(=O)(O)O)P(=O)(O)O [IB, ibandronate]	111.2%	107.7%	97.6%	98.6%
O=c1ccn([C@@H]2O[C@H](CO)[C@@H](O)C2(F)F)c(=O)[nH]1 [dFdU, 2′,2′-difluoro-2′-deoxyuridine]	99.0%	102.0%	103.9%	103.4%
O=c1ccn([C@@H]2O[C@H](COP(=O)(O)O)[C@@H](O)C2(F)F)c(=O)[nH]1 [dFdUMP, 2′,2′-difluoro-2′-deoxyuridine-5′-phosphate]	92.6%	84.8%	102.4%	98.8%
